Measurements taken from PubChem BioAssay AID1963841 (Molecular Pharmacology Branch, DTP, NCI, 2024).

Tested on: 439559-082-T-J2-PDC spheroid viability
Assay: Anticancer human tumor 439559-082-T-J2-PDC patient-derived colon adenocarcinoma cell line growth inhibition [POLQ]
Details: spheroids with HUVEC and MSC; for IC50: curve of first compound; for viability, T/C: stronger effect = lower value
Summary of the method: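 Complex spheroid viability model combining PDC tumour cells with endothelial (HUVEC) and MSC stromal cells. Novobiocin, ART-558 or RP6685 were tested singly and in combination with standard and investigational anticancer drugs. Each was titrated in half-log steps from near clinical Cmax, or from 10 microM where Cmax was unknown.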

[1] = second compound 0.0316 µM, first compound 0.0316 µM
[2] = second compound 0.0316 µM, first compound 0.1 µM
[3] = second compound 0.0316 µM, first compound 0.316 µM
[4] = second compound 0.0316 µM, first compound 1 µM
[5] = second compound 0.0316 µM, first compound 3.16 µM
[6] = second compound 0.0316 µM, first compound 10 µM
[7] = second compound 0.1 µM, first compound 0.0316 µM
[8] = second compound 0.1 µM, first compound 0.1 µM
[9] = second compound 0.1 µM, first compound 0.316 µM
[10] = second compound 0.1 µM, first compound 1 µM
[11] = second compound 0.1 µM, first compound 3.16 µM
[12] = second compound 0.1 µM, first compound 10 µM
[13] = second compound 0.316 µM, first compound 0.0316 µM
[14] = second compound 0.316 µM, first compound 0.1 µM
[15] = second compound 0.316 µM, first compound 0.316 µM
[16] = second compound 0.316 µM, first compound 1 µM
[17] = second compound 0.316 µM, first compound 3.16 µM
[18] = second compound 0.316 µM, first compound 10 µM
[19] = second compound 1 µM, first compound 0.0316 µM
[20] = second compound 1 µM, first compound 0.1 µM
[21] = second compound 1 µM, first compound 0.316 µM
[22] = second compound 1 µM, first compound 1 µM
[23] = second compound 1 µM, first compound 3.16 µM
[24] = second compound 1 µM, first compound 10 µM
[25] = second compound 3.16 µM, first compound 0.0316 µM
[26] = second compound 3.16 µM, first compound 0.1 µM
[27] = second compound 3.16 µM, first compound 0.316 µM
[28] = second compound 3.16 µM, first compound 1 µM
[29] = second compound 3.16 µM, first compound 3.16 µM
[30] = second compound 3.16 µM, first compound 10 µM
[31] = second compound 10 µM, first compound 0.0316 µM
[32] = second compound 10 µM, first compound 0.1 µM
[33] = second compound 10 µM, first compound 0.316 µM
[34] = second compound 10 µM, first compound 1 µM
[35] = second compound 10 µM, first compound 3.16 µM
[36] = second compound 10 µM, first compound 10 µM
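Note: spheroids exposed to compounds for seven days before readout.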
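Throughout, for viability, T/C: 100% = DMSO vehicle control viability.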

SMILES: CC(=O)O[C@H]1C(=O)[C@@]2(C)[C@H]([C@H](OC(=O)c3ccccc3)[C@]3(O)C[C@H](OC(=O)[C@H](O)[C@@H](NC(=O)c4ccccc4)c4ccccc4)C(C)=C1C3(C)C)[C@]1(OC(C)=O)CO[C@@H]1C[C@@H]2O + Nc1ccc(C#CCN(C(=O)Cc2ncc(C(F)(F)F)cc2C(F)(F)F)c2ccc(F)cc2)nn1
- IC50 (second compound 0.0316 µM): 0.73 µM
- IC50 (second compound 0.1 µM): 1.25 µM
- IC50 (second compound 0.316 µM): 0.807 µM
- IC50 (second compound 1 µM): 0.898 µM
- IC50 (second compound 3.16 µM): 0.511 µM
- IC50 (second compound 10 µM): 0.363 µM
- viability, T/C (second compound 0.0316 µM, first compound 0.00949 µM): 51.6%
- viability, T/C (second compound 0.0316 µM, first compound 0.03 µM): 54.9%
- viability, T/C (second compound 0.0316 µM, first compound 0.0949 µM): 75.6%
- viability, T/C (second compound 0.0316 µM, first compound 0.3 µM): 77.2%
- viability, T/C (second compound 0.0316 µM, first compound 0.949 µM): 45.6%
- viability, T/C (second compound 0.0316 µM, first compound 3 µM): 22.1%
- viability, T/C (second compound 0.1 µM, first compound 0.00949 µM): 53%
- viability, T/C (second compound 0.1 µM, first compound 0.03 µM): 53.8%
- viability, T/C (second compound 0.1 µM, first compound 0.0949 µM): 72.7%
- viability, T/C (second compound 0.1 µM, first compound 0.3 µM): 77.3%
- viability, T/C (second compound 0.1 µM, first compound 0.949 µM): 53.2%
- viability, T/C (second compound 0.1 µM, first compound 3 µM): 25.8%
- viability, T/C (second compound 0.316 µM, first compound 0.00949 µM): 54%
- viability, T/C (second compound 0.316 µM, first compound 0.03 µM): 58.5%
- viability, T/C (second compound 0.316 µM, first compound 0.0949 µM): 79.9%
- viability, T/C (second compound 0.316 µM, first compound 0.3 µM): 78.7%
- viability, T/C (second compound 0.316 µM, first compound 0.949 µM): 47.1%
- viability, T/C (second compound 0.316 µM, first compound 3 µM): 18.9%
- viability, T/C (second compound 1 µM, first compound 0.00949 µM): 46.2%
- viability, T/C (second compound 1 µM, first compound 0.03 µM): 56.7%
- viability, T/C (second compound 1 µM, first compound 0.0949 µM): 82.3%
- viability, T/C (second compound 1 µM, first compound 0.3 µM): 79.8%
- viability, T/C (second compound 1 µM, first compound 0.949 µM): 49.2%
- viability, T/C (second compound 1 µM, first compound 3 µM): 19%
- viability, T/C (second compound 3.16 µM, first compound 0.00949 µM): 37.2%
- viability, T/C (second compound 3.16 µM, first compound 0.03 µM): 53.5%
- viability, T/C (second compound 3.16 µM, first compound 0.0949 µM): 81.9%
- viability, T/C (second compound 3.16 µM, first compound 0.3 µM): 69%
- viability, T/C (second compound 3.16 µM, first compound 0.949 µM): 37.9%
- viability, T/C (second compound 3.16 µM, first compound 3 µM): 19.5%
- viability, T/C (second compound 10 µM, first compound 0.00949 µM): 42.8%
- viability, T/C (second compound 10 µM, first compound 0.03 µM): 48%
- viability, T/C (second compound 10 µM, first compound 0.0949 µM): 68.8%
- viability, T/C (second compound 10 µM, first compound 0.3 µM): 51.7%
- viability, T/C (second compound 10 µM, first compound 0.949 µM): 38%
- viability, T/C (second compound 10 µM, first compound 3 µM): 21.9%

SMILES: COc1cc(C2c3cc4c(cc3C(OC3OC5COC(C)OC5C(O)C3O)C3COC(=O)C23)OCO4)cc(OC)c1O (stereo unspecified) + Nc1ccc(C#CCN(C(=O)Cc2ncc(C(F)(F)F)cc2C(F)(F)F)c2ccc(F)cc2)nn1
- IC50 (second compound 0.0316 µM): > 10 µM
- IC50 (second compound 0.1 µM): > 10 µM
- IC50 (second compound 0.316 µM): > 10 µM
- IC50 (second compound 1 µM): > 10 µM
- IC50 (second compound 3.16 µM): > 10 µM
- IC50 (second compound 10 µM): > 10 µM
- viability, T/C [1]: 89.8%
- viability, T/C [2]: 110%
- viability, T/C [3]: 85.5%
- viability, T/C [4]: 79.4%
- viability, T/C [5]: 68%
- viability, T/C [6]: 71.3%
- viability, T/C [7]: 86.2%
- viability, T/C [8]: 94.3%
- viability, T/C [9]: 84.2%
- viability, T/C [10]: 85.5%
- viability, T/C [11]: 86.8%
- viability, T/C [12]: 81.7%
- viability, T/C [13]: 99.5%
- viability, T/C [14]: 106%
- viability, T/C [15]: 93.2%
- viability, T/C [16]: 84.1%
- viability, T/C [17]: 80.6%
- viability, T/C [18]: 88%
- viability, T/C [19]: 104%
- viability, T/C [20]: 93.5%
- viability, T/C [21]: 92.6%
- viability, T/C [22]: 91.5%
- viability, T/C [23]: 88.7%
- viability, T/C [24]: 70.6%
- viability, T/C [25]: 101%
- viability, T/C [26]: 109%
- viability, T/C [27]: 78.9%
- viability, T/C [28]: 84.8%
- viability, T/C [29]: 76%
- viability, T/C [30]: 75.9%
- viability, T/C [31]: 97.5%
- viability, T/C [32]: 84.4%
- viability, T/C [33]: 77.6%
- viability, T/C [34]: 86.2%
- viability, T/C [35]: 80%
- viability, T/C [36]: 70%

SMILES: O=c1[nH]cc(F)c(=O)[nH]1 + Nc1ccc(C#CCN(C(=O)Cc2ncc(C(F)(F)F)cc2C(F)(F)F)c2ccc(F)cc2)nn1
- IC50 (second compound 0.0316 µM): > 10 µM
- IC50 (second compound 0.1 µM): > 10 µM
- IC50 (second compound 0.316 µM): > 10 µM
- IC50 (second compound 1 µM): > 10 µM
- IC50 (second compound 3.16 µM): > 10 µM
- IC50 (second compound 10 µM): > 10 µM
- viability, T/C [1]: 105%
- viability, T/C [2]: 112%
- viability, T/C [3]: 101%
- viability, T/C [4]: 98%
- viability, T/C [5]: 90.2%
- viability, T/C [6]: 87.5%
- viability, T/C [7]: 115%
- viability, T/C [8]: 97.4%
- viability, T/C [9]: 91.4%
- viability, T/C [10]: 92%
- viability, T/C [11]: 86.5%
- viability, T/C [12]: 82.5%
- viability, T/C [13]: 116%
- viability, T/C [14]: 104%
- viability, T/C [15]: 105%
- viability, T/C [16]: 95.9%
- viability, T/C [17]: 83.1%
- viability, T/C [18]: 85.3%
- viability, T/C [19]: 104%
- viability, T/C [20]: 94.8%
- viability, T/C [21]: 101%
- viability, T/C [22]: 81.9%
- viability, T/C [23]: 84.5%
- viability, T/C [24]: 81.4%
- viability, T/C [25]: 103%
- viability, T/C [26]: 99.9%
- viability, T/C [27]: 84.2%
- viability, T/C [28]: 85.5%
- viability, T/C [29]: 86.6%
- viability, T/C [30]: 80.5%
- viability, T/C [31]: 109%
- viability, T/C [32]: 91.3%
- viability, T/C [33]: 102%
- viability, T/C [34]: 83.4%
- viability, T/C [35]: 87.9%
- viability, T/C [36]: 78.7%
